The values that follow come from a melting point compilation (Tetko et al.; mined from patent text by program, amines drawn as free bases though some values may be those of a salt).

Structures are written as SMILES.

Molecule `C#CCCCCCCOC(=O)COc1ccc(F)c(C(N)=O)c1F` returned a melting point of 130 to 132 °C.

`O=C(CC1CCCCC1)Nc1ccc2oc3c(c2c1)CCCC3` came in with a melting point of 189 to 191 °C.

Molecule `COC(=O)C1=C(CF)NC(C)=C(C(=O)OC(C)C)C1c1c(F)cccc1C(F)(F)F` (stereo unspecified) displayed a melting point of 82 to 84 °C.

Take `CC1NC(=NO)OC1c1ccccc1` (stereo unspecified): the melting point lay in the range of 145 to 148 °C.

With `CN(C)S(=O)(=O)n1cc(-c2ccccc2[N+](=O)[O-])nc1C#N`, the melting point is 111 to 114 °C.

For the molecule `CC(C)NC(=NC(=O)OCc1ccccc1)N=C1NC(=O)C(=O)N1c1ccc(Cl)c(Cl)c1`, the melting point was 211 °C.

`CC(C)(C)OC(=O)Nc1ccc(C#Cc2ccc(F)cc2)cc1[N+](=O)[O-]` yielded a melting point of 157 to 158 °C.

Turning to `COc1cc2ncnc(Nc3cccc(Br)c3)c2cc1OCCN1CC(=O)O[C@@H](C)C1`, the melting point was 190 °C.

On to `Cc1ccc(-c2cc(C(O)C#Cc3ccc(C(=O)O)cc3)cc3c2C(C)(C)CCC3(C)C)cc1` (stereo unspecified), for which the melting point was 180 °C.

`CON1C(=O)[C@@H](NC(=O)OC(C)(C)C)[C@@H]1C1CCCCC1` (relative stereo): the melting point was in the range of 110 to 112 °C.

Turning to `CC(C)(C)c1nc2c(N)nc(-c3ccncc3)nc2[nH]1`, the melting point lay in the range of 272 to 274 °C.

`COCC(=O)OC[C@@H]1CC(c2ccc(-c3ccc(N4C[C@H](Cn5ccnn5)OC4=O)cc3F)cn2)=NO1` displayed a melting point of 170 °C.

On to `O=C(O)/C=C1\Cc2ccccc2C1=O`, for which the melting point is 201 to 203 °C.

As to `COc1ccc(-c2cc(=O)c3cc(OCCCCCN4CCC(O)CC4)ccc3o2)cc1`, the melting point was 138 to 139 °C.

In turn, `CCCOc1cc(Cl)ccc1-c1nc2ncn(C)c(=S)n2n1` showed a melting point of 160 to 162 °C.

As for `CCOC(=O)C1=C(C)NC(CO)=C(C(=O)OCC)C1c1ccccc1C(F)(F)F` (stereo unspecified), the melting point fell in the range of 147 to 148 °C.

The molecule `CCOC(=O)C1=C2CC=CC=C2N(C(=O)OCC)CCC1` displayed a melting point of 60 °C.

In the case of `CCOC(=O)c1cnn(C)c1C(=O)Nc1ccn2nc(-c3cccnc3F)nc2c1`, the melting point lay within 249 to 251 °C.

For `Cc1ccccc1-c1coc2cc(O)cc(Cl)c2c1=O`, the melting point is more than 290 °C.

On to `CN(C)C=NS(=O)(=O)c1cc(C(=O)c2cc3c(c(Cl)c2Cl)OC(CO)C3)ccc1Cl` (stereo unspecified), for which the melting point is 180 to 182 °C.

In turn, `O=C1Nc2ccc(Cl)cc2[C@@](/C=C/C2CC2)(C(F)(F)F)O[C@H]1C1CC1` (relative stereo) registered a melting point of 143 to 144 °C.

Turning to `CCCCn1c(=O)[nH]c(C(F)(F)F)c(Cl)c1=O`, the melting point is 138 to 139 °C.

As to `O=C(c1ccccc1)c1nc(-c2ccncc2)cs1`, the melting point lay in the range of 135 to 136 °C.

The molecule `O=C1c2cccc(O)c2CC12CCCCC2` returned a melting point of 162 to 164 °C.

As to `CN=Cc1ccc2cc(OC)ccc2c1`, the melting point lay within 109 to 110 °C.

Molecule `CC(=O)NC[C@H]1CN(c2ccc(N3CCC(=C(C#N)CCO)CC3)c(F)c2)C(=O)O1` registered a melting point of 192 to 194 °C.

`CN1CCN(c2cc(Cl)cc3c2c(=O)n(Cc2ccccc2[N+](=O)[O-])c(=O)n3Cc2ccccc2)CC1` yielded a melting point of 164 to 169 °C.

Regarding `CCNc1ncc2cc(-c3c(Cl)cccc3Cl)c(=O)n(C)c2n1`, the melting point was 180 to 182 °C.

The molecule `Nc1ncnc2c1c(-c1cccc(Cl)c1)cn2-c1ccccc1` showed a melting point of 173 to 175 °C.

`COc1ccc(CC(=O)O)c(C)c1OC`: the melting point lay in the range of 102 to 104 °C.

With `NC(=NO)c1ccccc1N`, the melting point lay within 85 to 86 °C.

`CCCn1ncnc1COc1nn2c(-c3ccccc3)nnc2cc1-c1ccccc1` showed a melting point of 211 to 213 °C.

In turn, `CCCc1nc2ccc(N)cc2n1Cc1ccccc1Cl` displayed a melting point of 121 to 122 °C.

In the case of `COc1ccc(C2=NN(C3CCOCC3)C(=O)[C@H]3CC=CC[C@@H]23)cc1OC` (relative stereo), the melting point fell in the range of 175 to 177 °C.

Turning to `COCCNC(=O)COc1ccn2nc(-c3ccccc3)c(-c3ccc(=O)n(C(C)C)n3)c2c1`, the melting point was 144 to 146 °C.

In the case of `COC(=O)c1cccc(Oc2cccc(-c3nn(Cc4ccc(C(F)(F)P(=O)(O)O)c(Cl)c4)c(=Nc4ccc(Cl)c(Cl)c4)s3)c2)c1`, the melting point fell in the range of 137 to 139 °C.

Molecule `N#CNC(=NCC(O)c1cccc(O)c1)NCCSCc1csc(NC(=N)N)n1` (stereo unspecified) showed a melting point of 162 to 164 °C.

The molecule `CC(CN(C)C)CC(CNC(=O)N(CCCl)N=O)(c1ccccc1)c1ccccc1` (stereo unspecified) registered a melting point of 105 to 107 °C.

As to `Oc1ccc(Cl)cc1-n1c(=S)[nH]c2cc(C(F)(F)F)ccc21`, the melting point lay in the range of 248 to 250 °C.

Take `CCOCc1nc2c(N)nc3ccccc3c2n1NCCCNC(C)=O`: the melting point was in the range of 178 to 181 °C.

Consider `COC[C@H](Cc1ccccc1)Nc1nc(C)nc2c1nnn2-c1ccc(C(C)C)cc1Br`, for which the melting point lay in the range of 67 to 69 °C.

The molecule `CCSc1cc(C(=O)O)cc(S(N)(=O)=O)c1Oc1ccccc1` registered a melting point of 225 to 227 °C.

`O=C(O)C(O)c1ccc(-c2ccc(Cl)cc2)s1` (stereo unspecified): the melting point was in the range of 158 to 160 °C.

In turn, `COC(=O)CCc1cc(N)c(O)c(C(C)(C)C)c1` displayed a melting point of 108 to 109 °C.

Consider `ON=Cc1c(Br)ccc2c1OCO2`, for which the melting point was 239 to 240 °C.

Molecule `CCCCCCCCCCCCCCC(=O)Oc1ccc2cc(C(=N)N)ccc2c1` displayed a melting point of 153 °C.

Take `COc1cc2ncc(C#N)c(Nc3cccc(N(C)C)c3)c2cc1OC`: the melting point fell in the range of 246 to 249 °C.

Molecule `CN1CCN(C2=Nc3cc(F)ccc3N3CCc4cccc2c43)CC1` yielded a melting point of 151 to 153 °C.

Molecule `CSc1ncnc2c(N(C)C3CCCCC3)nc(Cl)nc12` gave a melting point of 135 to 137 °C.

With `CCc1nc(=O)n(C)c2sccc12`, the melting point was 156 °C.

Regarding `N=C(N)c1ccc2cc(OC(=O)CCCC3CCCCC3)ccc2c1`, the melting point was 189 to 193 °C.

Consider `CON1CCN2C(=O)C(c3c(C)cc(C)cc3C)C(=O)N2CC1`, for which the melting point is 229 to 230 °C.

`O=c1c(Br)c(CCC2CC2)nc2ccccn12` yielded a melting point of 162 to 164 °C.

The molecule `C=CCNC(=O)C(C#N)C(=O)C1CC1` (stereo unspecified) came in with a melting point of 72 to 73.5 °C.

In the case of `CCOc1ccc(CC(CO)NC(=O)c2ccnc(Br)c2)cc1OCC` (stereo unspecified), the melting point lay within 97 to 99 °C.

`O=C(O)c1cc(Oc2c(Br)cc(Br)cc2Br)ccc1[N+](=O)[O-]` returned a melting point of 162 to 170 °C.

With `O=C(CCl)Nc1c([N+](=O)[O-])cnn1-c1c(Cl)cc(C(F)(F)F)cc1Cl`, the melting point lay in the range of 130 to 133 °C.

Turning to `CN(C)C=NC(=O)C=Cc1ccccc1`, the melting point lay within 91 to 93 °C.

Turning to `Cc1c2c(nc3ccccc13)CCN(C(=N)N)CC2`, the melting point was 140 °C.

Take `CCOC(=O)C(=O)Nc1cccc(S(C)=O)c1C(N)=O` (stereo unspecified): the melting point lay in the range of 164 to 166 °C.

With `COc1cc(CC#N)ccc1OCC#Cc1ccccc1`, the melting point was 74 to 75 °C.

The molecule `CN1CC(C(Oc2ccccc2N)c2ccccc2)OCC1=O` (stereo unspecified) registered a melting point of 167 to 170 °C.

For `CN(C)C1CN(c2cc3c(cc2F)c(=O)c(C(=O)O)cn3C2CC2)C1`, the melting point lay within 255 to 261 °C.

`Cc1c(Cc2c[nH]cn2)ccc(O)c1C(N)=O` yielded a melting point of 263 °C.

Take `Cc1oc(C=Cc2ccc(Cl)cc2)nc1CCl`: the melting point was 121 to 122 °C.

`O=C1OC(c2ccccc2)(c2ccccc2)C2CN(c3nc4ccccc4o3)CCN12` (stereo unspecified) returned a melting point of 260 °C.

Molecule `CS(=O)CC(=NC1CCCCC1)c1cc2ccccc2cc1O` (stereo unspecified) yielded a melting point of 132 to 136 °C.

In the case of `CCCCc1nn(-c2cc([N+](=O)[O-])ccc2Cl)c(=O)[nH]1`, the melting point is 145 to 147 °C.

The molecule `COC(=O)c1ncc(C(=O)O)cc1Cl` came in with a melting point of 182 to 184 °C.

Regarding `CC(=O)c1c(C#N)nn(-c2c(Cl)cc(C(F)(F)F)cc2Cl)c1N`, the melting point lay within 200 to 201 °C.

On to `Cc1cc(NC(=O)C(CS)Cc2ccccc2)c(C)c(C(=O)O)c1` (stereo unspecified), for which the melting point was 180 to 182 °C.

As for `O=C(O)[C@H](Cc1ccc(C(F)(F)F)cc1)[C@@H](O)c1ccc(F)c(F)c1` (racemic), the melting point lay within 76 to 77 °C.

`c1ccc(Nc2nc(OCC3CCCCC3)c3[nH]cnc3n2)cc1` returned a melting point of 196 to 199 °C.

The molecule `Cc1cccc2c(-c3ccc(Cl)cc3)nccc12` showed a melting point of 122 to 124 °C.

In turn, `COC(=O)C(=O)c1ccccc1F` displayed a melting point of 98 to 100 °C.

The molecule `COc1cc2ncc(C#N)c(Nc3ccc(F)c(Cl)c3)c2cc1NC(=O)C=CCN1CCC(O)C1` (stereo unspecified) came in with a melting point of 215 to 220 °C.

Turning to `C=CCOc1ccc(C#N)c(O)c1`, the melting point is 134 to 136 °C.

`OCc1cnoc1-c1ccc(Cl)c(F)c1` yielded a melting point of 87 to 88 °C.

As to `CCOC(=O)C1=C(C)NC(C)=C(C(=O)OCCN2CCN(C(c3ccccc3)c3ccccc3)CC2)C1c1cccc(Cl)c1Cl` (stereo unspecified), the melting point was in the range of 87 to 89 °C.

Consider `NS(=O)(=O)c1ccc(-c2cnn(Cc3ccccc3)c(=O)c2-c2ccc(F)cc2)cc1`, for which the melting point was 185 to 189 °C.

For `Nc1cc(-c2noc(-c3cnc4ccc(-c5ccc(C(F)(F)F)cc5)cn34)n2)ccn1`, the melting point worked out at 280 °C.

Consider `C[C@@H]([C@@H](CC1CCC(c2ccccc2)CC1)C(=O)N[C@H](C(=O)Nc1nccs1)C(C)(C)C)N(O)C=O` (stereo partly specified), for which the melting point was 213 to 214 °C.

The molecule `Cc1c(O)c(=O)ccn1Cc1ccccc1` returned a melting point of 205 to 207 °C.

The molecule `N#CC(N)=C(N)Sc1ccc(Cl)cc1` showed a melting point of 107 to 108 °C.

In the case of `CCOC(=O)N(C)c1c(OC)cc(Cc2cnc(N)nc2N)cc1OC`, the melting point was in the range of 187 to 188 °C.

As to `CC1(C)CCC2CCCCC2C1NC=NC#N` (stereo unspecified), the melting point turned out to be 228 °C.

`N#CC(N)=C(C#N)N=Cc1c(Cl)cc(C(F)(F)F)cc1Cl` returned a melting point of 218 to 219 °C.

`Cc1[nH]c(C(=O)NCc2ccc(Cl)c(Cl)c2)c(C)c1-c1nc2ccc(C(=O)c3ccccc3)cc2[nH]1` displayed a melting point of 141 to 143 °C.

As to `Cc1ccccc1N=C(C#N)c1c(Cl)cccc1Cl`, the melting point worked out at 55 °C.

As for `O=C(O)CCCc1cc2cc(Cl)ccc2n1S(=O)(=O)c1ccccn1`, the melting point is 192 °C.

In the case of `COC(=O)c1ccc(OCC2CC(=O)N(c3ccc(C)cc3)C2)cc1` (stereo unspecified), the melting point was in the range of 110 to 112 °C.

As usually defined, the melting point is the temperature of the solid-liquid transition.
